One molecule from patent US11883524B2, “Cosmetic compositions” (MARY KAY INC., priority 2018, dated 2024) can be followed below.

Assay [1] has as its system procollagen peptide production by human epidermal fibroblasts. The assay can be described thus: Increase of collagen stimulation (procollagen peptide ELISA). In kind it is cell-based. The settings on record: human adult epidermal fibroblasts, treated 3 days. The text has this: Increase of Collagen Stimulation: Collagen is an extracellular matrix protein critical for skin structure. Increased synthesis of collagen helps improve skin firmness and elasticity. This bioassay was used to examine the effect of tetrahexyldecyl ascorbate, and/or Phyllanthus emblica fruit extract on the production of procollagen peptide (a precursor to collagen) by human epidermal fibroblasts. The endpoint of this assay was a spectrophotometric measurement that reflects the presence of procollagen peptide and cellular viability. The assay employed the quantitative sandwich enzyme immunoassay technique whereby a monoclonal antibody specific for procollagen peptide had been pre-coated onto a microplate. Standards and samples were pipetted into the wells and any procollagen peptide present was bound by the immobilized antibody. […] Following a wash to remove any unbound antibody-enzyme reagent, a substrate solution was added to the wells and color develops in proportion to the amount of procollagen peptide bound in the initial step using a microplate reader for detection at 450 nm. The color development was stopped and the intensity of the color was measured. […] Following incubation, cell culture medium was collected and the amount of procollagen peptide secretion quantified using a sandwich enzyme linked immuno-sorbant assay (ELISA) from Takara (#MK101).
(In an ELISA, binding on a coated surface is turned into a signal by an enzyme label.)

Another assay addresses T1, MMP3 (Homo sapiens, UniProt P08254).
T1 construct: purchased BioMol International AK-400
The assay can be described thus: Inhibition of matrix metalloproteinase enzyme activity (MMP3) assay. It is filed as biochemical. From the text: Inhibition of Matrix Metalloproteinase Enzyme Activity (MMP3) Assay: MMPs are extracellular proteases that play a role in many normal and disease states by virtue of their broad substrate specificity. MMP3 substrates include collagens, fibronectins, and laminin; while MMP9 substrates include collagen VII, fibronectins and laminin. Using Colorimetric Drug Discovery kits from BioMol International for MMP3 (AK-400) and MMP-9 (AK-410), this assay was designed to measure protease activity of MMPs using a thiopeptide as a chromogenic substrate (Ac-PLG-[2-mercapto-4-methyl-pentanoyl]-LG-OC2H5)5,6. The MMP cleavage site peptide bond was replaced by a thioester bond in the thiopeptide. Hydrolysis of this bond by an MMP produced a sulfhydryl group, which reacted with DTNB [5,5′-dithiobis(2-nitrobenzoic acid), Ellman's reagent] to form 2-nitro-5-thiobenzoic acid, which was detected by its absorbance at 412 nm (ε=13,600 M-1 cm-1 at pH 6.0 and above 7). Tetrahexyldecyl ascorbate was assayed.

Structures are written as SMILES.

T1 sequence (P08254 100-272 limits assumed): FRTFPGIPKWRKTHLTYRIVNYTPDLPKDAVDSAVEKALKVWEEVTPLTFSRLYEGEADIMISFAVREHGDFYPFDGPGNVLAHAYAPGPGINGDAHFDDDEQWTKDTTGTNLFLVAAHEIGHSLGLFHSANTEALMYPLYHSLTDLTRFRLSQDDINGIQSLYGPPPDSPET

As to `CCCCCCCCC(CCCCCC)C(=O)OC[C@H](OC(=O)C(CCCCCC)CCCCCCCC)[C@H]1OC(=O)C(OC(=O)C(CCCCCC)CCCCCCCC)=C1OC(=O)C(CCCCCC)CCCCCCCC` (some centres unmarked) [Tetrahexyldecyl ascorbate], the Increase of collagen result in assay [1] was “+50%”. Besides, at MMP3, the “Inhibition of MMP3 activity” value is −38%.
